Assay results as given in publication PMC6838683, “Discovery of Human Signaling Systems: Pairing Peptides to G Protein-Coupled Receptors” (Cell, 2019).
Positions of bridges follow the written chain, without caps; N, C: chain ends. Residues, ends and D or L forms follow the SMILES beside them.

Key:
GPR68 [1] = target: GPR68 (Homo sapiens, UniProt Q15743); test: Dynamic mass redistribution (DMR), concentration-response; assay type: cell-based; design: hIL-2Ra signal peptide (N); expressed in transfected cells; settings: GPR68, mean, SEM and n; for EC50: read-out: pEC50, DMR (AUC) (converted)
Outline: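 Doxycycline-induced (0.1 μg/ml) SNAP-tagged receptors in TREx 293 cells, equilibrated 90 min at 22°C in HEPES-buffered HBSS, pH 7.4, with 0.1% DMSO. Peptide-evoked optical wavelength shift recorded for 60 min at 22°C, buffer/solvent corrected and quantified as area under the curve. Mean ± SEM of at least 3 independent experiments.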

GPR68 [2] = test: β-arrestin recruitment (Tango); assay type: cell-based, human
Experimental: The peptide library was additionally screened against 120 GPCR targets in parallel, including all available orphan receptors and 27 known class A peptide receptors using the Tango assay platform ([Kroeze et al., 2015]). Briefly, HTLA cells (a HEK293 cell line stably expressing a tTA-dependent luciferase reporter and a β-arrestin2-TEV fusion gene) were plated 10,000 cells/well in poly-L-lysine–coated clear-bottom white 384-well plates in DMEM supplemented with 10% FBS, 100 U/ml penicillin and 100 μg/ml streptomycin, 2 μg/ml puromycin and 100 μg/ml hygromycin B. 24 hr later, cells were transfected with Tango GPCR constructs using the calcium phosphate method ([Jordan et al., 1996]). The next day, culture medium was changed to DMEM + 1% dFBS and 10 μM peptides were added for overnight stimulation. Bright-Glo solution (Promega) was incubated for 15–20 min at room temperature, and luminescence was counted using a Trilux luminescence counter (Wallac).
For subsequent peptide validation experiments using Tango assays, HTLA cells were transiently transfected in 10 cm dishes with the receptor of interest using polyethylenimine (PEI) ([Longo et al., 2013]). […] Assays were performed as described above, with luminescence measured using an EnSpire 2300 Multimode plate reader (PerkinElmer). Luminescence counts were exported into Excel and were analyzed using GraphPad Prism 7.

Chain of GPR68 (Homo sapiens, UniProt Q15743) (Q15743 2-365 limits assumed): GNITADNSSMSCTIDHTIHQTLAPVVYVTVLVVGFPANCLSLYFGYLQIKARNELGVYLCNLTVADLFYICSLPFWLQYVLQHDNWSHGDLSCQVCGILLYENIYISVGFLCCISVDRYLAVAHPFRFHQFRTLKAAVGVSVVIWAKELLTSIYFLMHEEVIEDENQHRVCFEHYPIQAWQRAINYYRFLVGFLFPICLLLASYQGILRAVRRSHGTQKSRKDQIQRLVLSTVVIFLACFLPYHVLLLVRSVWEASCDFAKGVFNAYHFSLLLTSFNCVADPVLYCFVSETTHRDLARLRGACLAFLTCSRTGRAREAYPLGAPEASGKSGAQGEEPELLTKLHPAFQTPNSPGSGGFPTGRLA

SMILES	Emax, DMR (AUC) (GPR68 [1])	EC50 (GPR68 [1])	Comment on response, Tango (fold over basal); Emax and pEC50 n.d. (GPR68 [2])
CC[C@H](C)[C@H](NC(=O)[C@H](CCCNC(=N)N)NC(=O)[C@H](C)NC(=O)CNC(=O)[C@H](CCCCN)NC(=O)[C@H](CCCNC(=N)N)NC(=O)[C@@H](NC(=O)[C@H](C)NC(=O)[C@@H]1CSSC[C@H](NC(=O)[C@H](CCSC)NC(=O)[C@@H]2CCCN2C(=O)[C@@H](NC(=O)[C@H](CCC(N)=O)NC(=O)CNC(=O)[C@@H](N)Cc2ccc(O)cc2)C(C)C)C(=O)N[C@@H](CC(=O)O)C(=O)N[C@@H](C)C(=O)NCC(=O)N[C@@H](CCC(=O)O)C(=O)N[C@@H](CCC(N)=O)C(=O)N1)C(C)C)C(N)=O [CART(42-89)_(9-28)] (H-YGQVPMCDAGEQCAVRKGARI-NH2; disulfide 7-13; N-terminus assumed)	944453.3	1.05 µM	No response
CC(C)C[C@H](NC(=O)[C@@H]1CCCN1C(=O)[C@H](Cc1ccccc1)NC(=O)[C@H](C)NC(=O)[C@H](CCC(=O)O)NC(=O)[C@H](C)NC(=O)[C@H](CO)NC(=O)[C@H](CCC(=O)O)NC(=O)[C@H](CC(N)=O)NC(=O)[C@H](CCC(=O)O)NC(=O)[C@H](C)NC(=O)[C@@H](NC(=O)[C@H](CC(N)=O)NC(=O)[C@@H]1CCCN1C(=O)[C@H](Cc1ccc(O)cc1)NC(=O)[C@@H](NC(=O)[C@H](CCCCN)NC(=O)[C@@H](NC(=O)[C@@H]1CCCN1C(=O)[C@H](CCCNC(=N)N)NC(=O)[C@@H](N)CCCNC(=N)N)C(C)C)C(C)C)C(C)C)C(=O)N[C@@H](CCC(=O)O)C(=O)N[C@@H](Cc1ccccc1)C(=O)O [Corticotropin_(17-40)] (H-RRPVKVYPNVAENESAEAFPLEF-OH; N-terminus and C-terminus assumed)	781397.0	1.29 µM	No response
